# Biological target: Superoxide dismutase [Cu-Zn], SOD1 (Homo sapiens) (UniProt P00441)
# Test: Inhibition of human erythrocyte Cu-Zn SOD by NBT reduction assay
# Sequence of Superoxide dismutase [Cu-Zn], SOD1 (Homo sapiens) (P00441 whole entry, looked up): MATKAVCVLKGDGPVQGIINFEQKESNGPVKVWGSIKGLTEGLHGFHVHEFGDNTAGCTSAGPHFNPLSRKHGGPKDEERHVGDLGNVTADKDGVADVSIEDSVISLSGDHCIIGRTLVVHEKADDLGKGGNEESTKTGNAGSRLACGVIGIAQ
row,IC50 [µM],Structure (SMILES)
1,155,c1ccc(Cn2nc3cc2CNCCNCCNCc2cc(n(Cc4ccccc4)n2)CNCCNCCNC3)cc1
2,89.2,CCCCCCCCN1CCNCc2cc([nH]n2)CNCCN(CCCCCCCC)CCNCc2cc(n[nH]2)CNCC1
3,96.6,Cn1nc2cc1CNCCNCCNCc1cc(n(C)n1)CNCCNCCNC2
4,274,c1c2n[nH]c1CNCCN1CCNCc3cc(n[nH]3)CNCCN(CCNC2)CCNCc2cc([nH]n2)CNCC1

# — BindingDB's records for doi:10.1021/jm2017144 (Universidad De Granada, 2012)
